Results as given in paper PMC10257182, “Discovery of senolytics using machine learning” (Nature Communications, 2023).
“And” between values parts separate entries of the source, which are not always exact repeats. Equal entries are not always repeated.

What was measured:
Assay type in all cases: cell-based, human
[1] = system: control A549 cells; experiment: Cell survival assay using crystal violet staining, TIS, control cells; details: Control (no etoposide) cells; Control DMSO = 100; single replicates (SUP FIG 9E)
Description: Equal numbers of control and senescent cells were plated at high density on multiwell plates just before senolytic treatment addition. After treatment, cells were fixed on 0.5% glutaraldehyde (Sigma) and then dried at RT overnight. Then, wells were stained with crystal violet solution for 3 h, washed and dried. Once they were completely dry, the plates were scanned for records. Quantification was performed extracting the staining with 1% acetic acid and measuring the final solution by absorbance at 595 nm. […]
cells per condition is indicated. (d) Cell survival assay measuring the senolytic effect in lung cancer senescent cells. The panels show a representative crystal violet staining of tissue culture dishes of confluent A549 cells treated with 100 μM etoposide and control A549 cells, all treated with 10 nM oleandrin, ouabain and periplocin, and DMSO as vehicle control for 72 hours as indicated. (e) Graph representing the cell survival by quantification of the crystal violet staining of the experiment described in (d), as described in Methods. Data represented as individual datapoints, and bars and error bars representing the mean ± SEM of 14 independent experiments. Statistical analysis was performed using a one-way ANOVA (Tukey’s test) for multiple comparisons. […]
Scale bars represent 100 μm. ns = not significant, * = p < 0.05, ** = p < 0.01, *** = p < 0.001, **** = p < 0.0001. Source data are provided as a Source Data file.

[2] = system: A549 cells treated with 100 μM etoposide; experiment: Cell survival assay using crystal violet staining, TIS, senescent cells; details: fraction of Control DMSO = 1, n 15
[3] = system: NOXA mRNA in IMR90 cells at passage 27; experiment: NOXA mRNA expression by RT-qPCR, replicative senescence; details: Replicative Senescence cells, 10 nM; relative to Control DMSO = 1; individual replicate values
Description: Total RNA was isolated using RNAeasy kit (Quiagen). cDNA was generated with reverse transcriptase iScript (Bio-Rad). RT-qPCR was performed using SYBR Select Master Mix (Applied Biosystems) in OneStepPlus detection system (Applied Biosystems). Oligos for amplification were: NOXA Fw-[…] and Rv-[…]; b-ACTIN Fw-[…] and Rv-[…]; IL1a Fw-[…] and Rv- […]; IL1b Fw-[…] and Rv- […]; IL8 Fw-[…] and Rv-[…]; p16 Fw-CGGTCGGAGGCCGATCCAG and Rv- […]; p21Fw-[…] and Rv- […].

[4] = system: senescent IMR90 ER:RAS cells (4-OHT-induced); experiment: Nuclei count (Hoechst, high content imaging) senolytic assay, oncogene-induced senescence (OIS) model, senescent cells; details: for Mean % Cell Survival: Senescent, mean n=3 (Fig 3C); for % Cell Survival: senescence
Summary of the method: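 Senolytic read-out as total nuclei per well by automated Hoechst imaging after 72 h compound exposure (10 μM to 10 nM, 10-point […], triplicate), relative to untreated controls. Paired cultures: IMR90 ER:RAS kept non-senescent or made senescent with 100 nM final 4-OHT; ouabain served as positive control.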

## CO[C@H]1C[C@H](O[C@H]2CC[C@]3(C)[C@H]4CC[C@]5(C)[C@@H](C6=CC(=O)OC6)CC[C@]5(O)[C@@H]4CC[C@]3(O)C2)O[C@H](C)[C@H]1O[C@@H]1O[C@H](CO)[C@@H](O)[C@H](O)[C@H]1O [Periplocin, periplocin]
[1]
  % Cell Survival: 90% and 112.2% and 107.2% and 111% and 106.6% and 104.9% and 102.9% and 93.8% and 98.6% and 110.6% and 109.7% and 108.4% and 94.2% and 93.9%
[2]
  Cell survival, mean (Test details, Mean 2): 0.873
[3]
  NOXA mRNA expression: 5.65 and 6.34 and 7.72
[4]; OIS IMR90 ER:RAS, Hoechst nuclei count, marginal effect on normal cells
  dose showing the clearest / optimal senolytic effect: 46.4 nM
[4]; OIS model, 4-OHT-induced IMR90 ER:RAS, nuclei count, 72 h
  IC50: 24 nM
[4]; log (dose) [M] -5, 72 h
  Mean % Cell Survival: 3.183%
[4]; log (dose) [M] -5.33, 72 h
  Mean % Cell Survival: 6.126%
[4]; log (dose) [M] -5.66, 72 h
  Mean % Cell Survival: 4.43%
[4]; log (dose) [M] -6, 72 h
  Mean % Cell Survival: 4.805%
[4]; log (dose) [M] -6.33, 72 h
  Mean % Cell Survival: 5.142%
[4]; log (dose) [M] -6.66, 72 h
  Mean % Cell Survival: 5.675%
[4]; log (dose) [M] -7, 72 h
  Mean % Cell Survival: 6.834%
[4]; log (dose) [M] -7.33, 72 h
  Mean % Cell Survival: 16.5597%
[4]; log (dose) [M] -7.66, 72 h
  Mean % Cell Survival: 54.5059%
[4]; log (dose) [M] -8, 72 h
  Mean % Cell Survival: 96.9401%
[4]; experimental screen, OIS IMR90 ER:RAS
  senolytic activity (in words): clear senolytic action
[4]; ratio between the IC50 of control cells and the IC50 of senescent cells, OIS IMR90 ER:RAS
  senolytic index (SI): 12.3
[4]; log (dose) [M] -5, individual replicates (Fig 3D)
  % Cell Survival: 3.074% and 3.321% and 3.154%
[4]; log (dose) [M] -5.33, individual replicates (Fig 3D)
  % Cell Survival: 5.0494% and 9.706% and 3.6215%
[4]; log (dose) [M] -5.66, individual replicates (Fig 3D)
  % Cell Survival: 4.72% and 4.5977% and 3.972%
[4]; log (dose) [M] -6, individual replicates (Fig 3D)
  % Cell Survival: 4.061% and 4.981% and 5.374%
[4]; log (dose) [M] -6.33, individual replicates (Fig 3D)
  % Cell Survival: 6.147% and 3.321% and 5.958%
[4]; log (dose) [M] -6.66, individual replicates (Fig 3D)
  % Cell Survival: 4.501% and 7.152% and 5.374%
[4]; log (dose) [M] -7, individual replicates (Fig 3D)
  % Cell Survival: 5.818% and 7.791% and 6.893%
[4]; log (dose) [M] -7.33, individual replicates (Fig 3D)
  % Cell Survival: 17.8924% and 15.198% and 16.5888%
[4]; log (dose) [M] -7.66, individual replicates (Fig 3D)
  % Cell Survival: 42.1515% and 64.2401% and 57.1262%
[4]; log (dose) [M] -8, individual replicates (Fig 3D)
  % Cell Survival: 93.8529% and 97.318% and 99.6495%
